# According to patent US9079906B2, “Triazolopyridazines as PAR1 inhibitors, production thereof, and use as medicaments” (Sanofi, priority 2008, dated 2015):
# Structures can show the parent of a compound that is named as a salt.
# Target: T1, PAR1 (Homo sapiens (Human), UniProt P25116)
# Assay: Inhibition of PAR1-mediated platelet aggregation induced by TRAP
# Type: cell-based
# Conditions: TRAP-induced aggregation of washed platelets from healthy volunteer donors, 96-well format
# Procedure: PAR1 determination method: inhibition of PAR1-mediated platelet aggregation
# The pharmacological testing of the substances took place in platelet aggregation induced by TRAP (thrombin receptor-activating peptide) in 96-well format. For this purpose, blood was taken from healthy volunteer donors in 20 ml syringes containing 2 ml of 3.13% sodium citrate solution. After centrifugation at 150×g for 20 minutes, the platelet-rich plasma (PRP) was separated off and mixed with 1 μl of PGE1 solution (500 μg/ml in ethanol)/ml of PRP. Incubation at RT for 5 minutes was followed by centrifugation at 120×g for 15 minutes to remove the leukocytes. The leukocyte-free PRP was transferred in 5 ml portions into 15 ml PP tubes and centrifuged at 360×g for 15 minutes in order to pellet the platelets. The plasma was then decanted off and the platelet sediment from 5 ml of PRP was resuspended in 1 ml of Tyrode's (120 mM NaCl, 2.6 mM KCl, 12 mM NaHCO3, 0.39 mM NaH2PO4×H2O, 10 mM HEPES, 0.35% BSA, 5.5 mM glucose, pH 7.4) and adjusted with Tyrode's to a platelet count of 3×10^5/microliter (μL). 13 ml of this cell suspension were then mixed with 866 μL of 10 mM CaCl2 solution, and 120 μL thereof were pipetted into each well of a 96-well plate containing 15 μL of the substance to be tested. After incubation at room temperature in the dark for 30 minutes, 15 μL of a TRAP solution (70-100 μM) were added as agonist, and kinetics were recorded at 650 nm in a SpectraMax 340 at 37° C. for 20 minutes while shaking. The areas under the curves of negative control (Tyrode's/DMSO) and positive control (15 μl of agonist/DMSO) were calculated and the difference was fixed as the 100% value. The substances to be tested were pipetted as serial dilutions in duplicate determination, the AUC was likewise determined for each substance concentration, and the % inhibition of the AUC compared with the control was calculated. On the basis of the % inhibition, the IC50 was calculated by nonlinear regression analysis according to the 4-parameter equation.
# T1 sequence (P25116 22-425): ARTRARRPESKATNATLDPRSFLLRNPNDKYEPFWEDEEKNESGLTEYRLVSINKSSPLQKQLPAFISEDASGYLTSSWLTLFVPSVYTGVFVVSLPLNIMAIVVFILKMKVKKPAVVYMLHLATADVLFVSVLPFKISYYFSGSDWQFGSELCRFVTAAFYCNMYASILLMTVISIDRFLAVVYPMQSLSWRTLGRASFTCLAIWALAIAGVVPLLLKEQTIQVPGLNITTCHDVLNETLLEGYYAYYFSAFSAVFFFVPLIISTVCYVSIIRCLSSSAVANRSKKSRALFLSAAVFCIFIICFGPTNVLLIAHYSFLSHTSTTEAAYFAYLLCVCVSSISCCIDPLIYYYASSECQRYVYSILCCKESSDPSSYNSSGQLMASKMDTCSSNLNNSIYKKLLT
row,IC50,Compound
1,650 nM,"CCOc1ccc2nn(CC(=O)c3cc(NC(C)=O)cc(S(F)(F)(F)(F)F)c3)c(=N)n2n1 [Example 1, N-[3-[2-(6-Ethoxy-3-imino-[1,2,4]triazolo[4,3-b]pyridazin-2-yl)acetyl]-5-(pentafluorosulfanyl)phenyl]acetamide as the trifluoroacetic acid salt]"
2,9 nM,"CCC(CC)Oc1cc(C)c2nn(CC(=O)c3cc(COCCCO)cc(C(C)(C)C)c3)c(=N)n2n1 [Example 77, 1-[3-tert-butyl-5-(3-hydroxy-propoxymethyl)phenyl]-2-[6-(1-ethylpropoxy)-3-imino-8-methyl-[1,2,4]triazolo[4,3-b]-pyridazin-2-yl]ethanone hydrochloride]"
3,8500 nM,"CCOc1ccc2nn(CC(=O)c3cc(N4CCOCC4)c(OC)c(C(F)(F)F)c3)c(=N)n2n1 [Example 5, 2-(6-Ethoxy-3-imino-[1,2,4]triazolo[4,3-b]pyridazin-2-yl)-1-(4-methoxy-3-morpholin-4-yl-5-trifluormethylphenyl)ethanone trifluoroacetic acid salt]"
4,1600 nM,"CC(C)(C)c1cc(C(=O)Cn2nc3ccc(Cl)nn3c2=N)cc(C(C)(C)C)c1O [Example 2, 2-(6-chloro-3-imino-[1,2,4]triazolo[4,3-b]pyridazin-2-yl)-1-(3,5-di-tert-butyl-4-hydroxyphenyl)ethanone]"
5,12 nM,"CCC(CC)Oc1cc(C)c2nn(CC(=O)c3cc(OCCCO)cc(C(C)(C)C)c3)c(=N)n2n1 [Example 90, 1-[3-tert-butyl-5-(3-hydroxy-propoxy)phenyl]-2-[6-(1-ethyl-propoxy)-3-imino-8-methyl-[1,2,4]triazolo[4,3-b]pyridazin-2-yl]ethanone hydrochloride]"

# Target: T1, PAR1
# Assay: PAR1 binding test (radioligand displacement, membrane preparation)
# Conditions: human PAR1 expressed in High Five insect cell membranes; radioligand 20 nM; read-out: Inhibition of binding IC50
# Procedure: The synthesized substances were examined in a PAR1 binding test. This tested whether the substances can inhibit the binding of a radioactively labeled PAR1 agonist known from the literature at the PAR1 receptor (Ho-Sam Ahn, Mol Pharm, 51:350-356, 1997). The human PAR1 receptor was expressed transiently in High Five insect cells. From these cells, after 48 hours, a membrane preparation was produced by standard methods, aliquoted into 10 mM Tris-HCl; 0.3 mM EDTA; 1 mM EGTA; 250 mM sucrose pH 7.5, and stored at −80° C.
# The substances were preincubated with the membrane at room temperature for 15 minutes, then the radioligand (ALA-(para-F-Phe)-Arg-ChA-homoArg-(3,4-^3H-Tyr)-NH2; approx. 40 Ci/mMol) was added. The end concentration of the radioligand in the test buffer (50 mM Tris-HCl; 10 mM MgCl2; 1 mM EGTA; 0.1% BSA; 2% DMSO) was 20 nM, that of the membrane 1 mg/ml. After an incubation time of 60 minutes, 25 μL of the mixture were transferred to a 96-well MultiScreenHTS FB microtiter filtration plate (from Millipore), which had been pretreated beforehand with a 0.75% aqueous polyethyleneimine solution for 5 hours at room temperature. Thereafter, with vacuum extraction, each well was washed four times with 300 μL of buffer (50 mM Tris-HCl; 10 mM MgCl2; 1 mM EGTA). The plate was then dried overnight, 100 μl of scintillator per well were added, and the plate was analyzed after 6 hours in a Wallac MicroBeta (from PerkinElmer) liquid scintillation counter. The nonspecific binding was determined in the presence of 100 μM SCH79797 (PAR-1 antagonist; from Tocris, Cat. No. 1592) and subtracted from all measurements. The 100% value used was a control without inhibitor. The % inhibition values of a substance dilution series were used to calculate the IC50 with the aid of nonlinear regression analysis according to the 4-parameter equation.
row,IC50,Compound
1,365 nM,"CCC(CC)Oc1cc(C)c2nn(CC(=O)c3cc(OCCO)cc(S(F)(F)(F)(F)F)c3)c(=N)n2n1 [Example 161, 2-[6-(1-ethylpropoxy)-3-imino-8-methyl-[1,2,4]triazolo[4,3-b]pyridazin-2-yl]-1-[3-(2-hydroxy-ethoxy)-5-(pentafluorosulfanyl)-phenyl]ethanone trifluoroacetic acid salt]"
2,107 nM,"CCC(CC)Oc1cc(C)c2nn(CC(=O)c3cc(OCCO)cc(C(C)(C)C)c3)c(=N)n2n1 [Example 89, 1-[3-tert-butyl-5-(2-hydroxyethoxy)phenyl]-2-[6-(1-ethylpropoxy)-3-imino-8-methyl-[1,2,4]triazolo[4,3-b]pyridazin-2-yl]ethanone hydrochloride]"
3,24000 nM,"COc1c(N2CCOCC2)cc(C(=O)Cn2nc3ccc(Cl)nn3c2=N)cc1C(C)(C)C [Example 56, 1-(3-tert-butyl-4-methoxy-5-morpholin-4-ylphenyl)-2-(6-chloro-3-imino-[1,2,4]triazolo-[4,3-b]pyridazin-2-yl)-ethanone trifluoroacetic acid salt]"
4,219 nM,"Cc1c(OC(C)C)nn2c(=N)n(CC(=O)c3cc(OCCO)cc(C(C)(C)C)c3)nc2c1C [Example 215, 1-[3-tert-butyl-5-(2-hydroxy-ethoxy)phenyl]-(3-imino-6-isopropoxy-7,8-dimethyl-[1,2,4]triazolo[4,3-b]pyridazin-2-yl)ethanone hydrochloride]"
5,149 nM,"CCOc1nn2c(=N)n(CC(=O)c3cc(OCCCO)c(OC)c(C(C)(C)C)c3)nc2c(CC)c1CC [Example 197, 1-[3-tert-butyl-5-(3-hydroxy-propoxy)-4-methoxyphenyl]-2-(6-ethoxy-7,8-diethyl-3-imino-[1,2,4]triazolo[4,3-b]pyridazin-2-yl)ethanone hydrochloride]"
6,484 nM,"CC(C)Oc1cc(OC(C)C)c2nn(CC(=O)c3cc(OCCO)cc(C(C)(C)C)c3)c(=N)n2n1 [Example 240, 1-[3-tert-butyl-5-(2-hydroxy-ethoxy)phenyl]-2-(3-imino-6,8-diisopropoxy-[1,2,4]triazolo[4,3-b]pyridazin-2-yl)ethanone hydrochloride]"
7,9800 nM,"CCOc1nn2c(=N)n(CC(=O)c3cc(OC)cc(S(F)(F)(F)(F)F)c3)nc2cc1N(CC)CC [Example 84, 2-(7-diethylamino-6-ethoxy-3-imino-[1,2,4]triazolo[4,3-b]pyridazin-2-yl)-1-[3-methoxy-5-(pentafluorosulfanyl)-phenyl]ethanone trifluoroacetic acid salt]"
8,416 nM,"CCOc1nn2c(=N)n(CC(=O)c3cc(OCCCF)cc(C(C)(C)C)c3)nc2c(C)c1C [Example 222, 1-[3-tert-butyl-5-(3-fluoro-propoxy)phenyl]-2-(6-ethoxy-3-imino-7,8-dimethyl-[1,2,4]triazolo[4,3-b]pyridazin-2-yl)ethanone hydrochloride]"
9,2500 nM,"CCOc1cc(C)c2nn(CC(=O)c3cc(OC(COC)COC)cc(C(C)(C)C)c3)c(=N)n2n1 [Example 127, 1-[3-tert-butyl-5-(2-methoxy-1-methoxymethylethoxy)phenyl]-2-(6-ethoxy-3-imino-8-methyl-[1,2,4]triazolo[4,3-b]pyridazin-2-yl)ethanone hydrochloride]"
10,174 nM,"CCNC(=O)c1nn2/c(=N/C)n(CC(=O)c3cc(OCCO)c(OC)c(C(C)(C)C)c3)nc2c(C)c1C [Example 207, N-ethyl-2-{2-[3-tert-butyl-5-(2-hydroxyethoxy)-4-methoxy-phenyl]-2-oxoethyl}-7,8-dimethyl-3-[(E)-methylimino]-2,3-dihydro-[1,2,4]triazolo[4,3-b]pyridazine-6-carboxamide hydrochloride]"
11,631 nM,"CCC(CC)Oc1ccc2nn(CC(=O)c3cc(OCCOC)cc(C(C)(C)C)c3)c(=N)n2n1 [Example 50, 1-[3-tert-butyl-5-(2-methoxy-ethoxy)phenyl]-2-[6-(1-ethylpropoxy)-3-imino-[1,2,4]triazolo[4,3-b]pyridazin-2-yl]ethanone hydrochloride]"
12,155 nM,"CCOc1nn2c(=N)n(CC(=O)c3cc(OCCO)cc(C(C)(C)C)c3)nc2c(CC)c1C [Example 221, 1-[3-tert-butyl-5-(2-hydroxy-ethoxy)phenyl]-2-(6-ethoxy-8-ethyl-3-imino-7-methyl-[1,2,4]triazolo[4,3-b]pyridazin-2-yl)ethanone hydrochloride]"
13,257 nM,"CCOc1cc(C(C)(C)O)c2nn(CC(=O)c3cc(OCCCO)c(OC)c(C(C)(C)C)c3)c(=N)n2n1 [Example 168, 1-[3-tert-butyl-5-(3-hydroxy-propoxy)-4-methoxyphenyl]-2-[6-ethoxy-8-(1-hydroxy-1-methyl-ethyl)-3-imino-[1,2,4]triazolo[4,3-b]pyridazin-2-yl]ethanone hydrochloride]"
14,183 nM,"CCOc1cc(CC)c2nn(CC(=O)c3cc(OCCCO)c(OC)c(C(C)(C)C)c3)c(=N)n2n1 [Example 174, 1-[3-tert-butyl-5-(3-hydroxy-propoxy)-4-methoxyphenyl]-2-(6-ethoxy-8-ethyl-3-imino-[1,2,4]triazolo[4,3-b]pyridazin-2-yl)ethanone hydrochloride]"

row,Compound,IC50
1,"CCC(CC)Oc1ccc2nn(CC(=O)c3cc(N4CCOCC4)c(OC)c(C(C)(C)C)c3)c(=N)n2n1 [Example 14, 1-(3-tert-butyl-4-methoxy-5-morpholin-4-ylphenyl)-2-[6-(1-ethylpropoxy)-3-imino-[1,2,4]triazolo[4,3-b]pyridazin-2-yl)ethanone trifluoroacetic acid salt]",279 nM
